This note sets out measurements from patent US20040186166A1, “Cannabinoid analogs as peroxisome proliferator activated nuclear receptor gamma activators” (priority 2002, published 2004).

The experiment addresses T1, mPPARγ1 (Mus musculus, UniProt P37238).
T1 construct: made in house; host or cells: reticulocyte lysate in vitro transcription/translation (Promega) from pCMX-mPPARγ1
T1 sequence (P37238 1-475 isoform P37238-2): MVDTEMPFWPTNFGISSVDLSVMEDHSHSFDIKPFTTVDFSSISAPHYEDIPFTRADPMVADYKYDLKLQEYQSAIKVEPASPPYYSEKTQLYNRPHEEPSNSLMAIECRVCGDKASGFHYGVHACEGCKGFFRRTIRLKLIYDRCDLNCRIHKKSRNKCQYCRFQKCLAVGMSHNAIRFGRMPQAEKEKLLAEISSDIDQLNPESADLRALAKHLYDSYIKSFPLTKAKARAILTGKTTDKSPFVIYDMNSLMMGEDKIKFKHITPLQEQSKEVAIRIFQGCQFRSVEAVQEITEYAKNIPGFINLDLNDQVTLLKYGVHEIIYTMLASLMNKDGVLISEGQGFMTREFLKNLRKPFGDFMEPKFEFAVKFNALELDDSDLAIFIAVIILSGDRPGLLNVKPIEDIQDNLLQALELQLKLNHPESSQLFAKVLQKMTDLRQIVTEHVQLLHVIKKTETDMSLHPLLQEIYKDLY
Nature of the experiment: Partial protease (trypsin) digestion assay, PPARγ. Type of experiment: binding. The protocol:
Partial protease digestion was carried out as described by Leng et. al. (J Steroid Biochem Mol Biol 46:643-61, 1993). PPAR proteins were made by in vitro transcription/translation reactions in reticulocyte lysate according to the manufacture's instructions (Promega). AJA, GW347845, or vehicle alone was incubated with the 35S-labeled PPARs at room temperature for one hour before trypsin digestion. Reactions were stopped by boiling in SDS-containing sample buffer, and lysates were subjected to SDS-PAGE and autoradiography.
To determine if AJA can bind to PPARγ, in vitro translated ^35S-labeled mPPARγ1 was incubated with AJA or a carrier vehicle before trypsin digestion. To test if AJA binds to PPARs, partial proteinase digestion assays were conducted as described previously (Leng et al., J Steroid Biochem Mol Biol 46:643-61, 1993). […] Such conformational change can be detected by limited proteinase digestion based on alteration of the accessibility of proteolytic sites on the surface of the receptors.
The PPAR proteins were synthesized and labeled with ^35S-methionine in reticulocyte lysate and incubated with AJA, GW347845, or vehicle alone at room temperature for one hour before trypsin digestion. […] The proteolytic patterns of PPAR proteins were then analyzed by SDS-PAGE and autoradiography, and compared with vehicle-treated control samples. […]

Turning to `CCCCCCC(C)(C)c1cc(O)c2c(c1)OC(C)(C)[C@@H]1CC=C(C(=O)O)C[C@@H]21` [AJA, dimethylheptyl-THC-11-oic acid], where the note is “20 μM AJA, 30 μg/ml trypsin, 30 or 60 min”, the “trypsin-resistant PPARγ fragments (protection from trypsin digestion)” value is “Two prominent trypsin-resistant fragments of 30 and 24 kDa”. Further, the “proteinase-resistant PPARγ fragments, concentration dependence” value (2, 20 and 100 μM AJA) was “proteinase-resistant PPARγ fragments were observed”.
